{
  "source": "paper PMC9157191",
  "about": "“The ex vivo pharmacology of HIV-1 antiretrovirals differs between macaques and humans” (iScience, 2022);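 for p24 AUC3-15: high arm above the IC50 and low arm below the IC50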",
  "key": {"[1]": {"test_system": "SIVmac32H M184V", "type": "cell-based, SIV"}, "[2]": {"test_system": "SIVmac32H", "assay": "microbe, parasite or virus in culture", "type": "cell-based", "details": "for p27 AUC3-15: Rhesus macaque cervical explants"}, "[3]": {"test_system": "HIV-1BaL", "assay": "microbe, parasite or virus in culture", "type": "cell-based", "details": "Human cervical explants"}, "[4]": {"test_system": "HIV-1YU.2 K65R", "assay": "microbe, parasite or virus in culture", "type": "cell-based", "details": "Human colorectal explants"}, "[5]": {"test_system": "HIV-1/SIV/SHIV isolates", "type": "cell-based"}, "[6]": {"assay": "Drug concentrations in human colorectal tissue explants (LC-MS/MS)", "type": "in vitro ADME", "details": "for AUC3h-15d / Cmax: Human colorectal explants, 3 h exposure; for Cmax: human, colorectal tissue explants, read-out: Cmax"}, "[7]": {"assay": "Drug concentrations in human ecto-cervical tissue explants (LC-MS/MS)", "details": "for AUC3h-15d / Cmax: Human ecto-cervical explants, 3 h exposure; for Cmax: human, ecto-cervical tissue explants"}, "[8]": {"test_system": "RT-SHIV", "assay": "tissue or blood", "type": "cell-based", "details": "for p27 AUC3-15: Rhesus macaque vaginal explants"}, "[9]": {"test_system": "SIVmac32H K65RM184V", "assay": "microbe, parasite or virus in culture", "type": "cell-based", "details": "for p27 AUC3-15: Rhesus macaque cervical explants"}, "[10]": {"test_system": "RT-SHIV", "assay": "tissue or blood", "type": "cell-based", "details": "for p27 AUC3-15: Rhesus macaque colorectal explants"}, "[11]": {"assay": "Drug concentrations in Rhesus macaque vaginal tissue explants (LC-MS/MS)", "type": "in vitro ADME, Rhesus macaque (Macaca mulatta)"}, "[12]": {"details": "high concentration: TFV 70 µM, MVC […], or TFV 70 µM + MVC […]"}, "[13]": {"details": "low concentration: TFV 7 µM, MVC […], or TFV 7 µM + MVC […]"}, "[14]": {"details": "Simian immunodeficiency virus, in Macaca mulatta, 360 h, NHP cervical explants, day 15"}, "[15]": {"details": "Human immunodeficiency virus 1, 360 h, day 15"}, "[16]": {"details": "Comb. gel, High [ ]: TFV 70 µM + MVC […]"}, "[17]": {"details": "Comb. gel, Low [ ]: TFV 7 µM + MVC […]"}, "[18]": {"details": "Single gel, High [ ]: TFV 70 µM or MVC […]"}, "[19]": {"details": "Single gel, Low [ ]: TFV 7 µM or MVC […]"}},
  "data": [
    {"smiles": "C[C@H](Cn1cnc2c(N)ncnc21)OCP(=O)(O)O", "note": "[TFV, Tenofovir]", "values": [
      {"measurement": "IC50", "setting": "[1]", "value": "40.2 ± 30.1", "unit": "µM"},
      {"measurement": "p27 AUC3-15", "setting": "[2]; [12]", "value": "1.25 ± 0.36", "unit": "µgxd/ml"},
      {"measurement": "p27 AUC3-15", "setting": "[2]; [13]", "value": "1.46 ± 0.52", "unit": "µgxd/ml"},
      {"measurement": "IC50", "setting": "[2]; [14]", "value": "52.6 ± 41.5", "unit": "µM"},
      {"measurement": "p24 AUC3-15", "setting": "[3]; [12]", "value": "1.13 ± 0.10", "unit": "µgxd/ml"},
      {"measurement": "p24 AUC3-15", "setting": "[3]; [13]", "value": "2.55 ± 1.47", "unit": "µgxd/ml"},
      {"measurement": "IC50", "setting": "[3]; [15]", "value": "41.4 ± 0.57", "unit": "µM"},
      {"measurement": "p24 AUC3-15", "setting": "[4]; [12]", "value": "0.41 ± 0.03", "unit": "µgxd/ml"},
      {"measurement": "p24 AUC3-15", "setting": "[4]; [13]", "value": "0.71 ± 0.06", "unit": "µgxd/ml"},
      {"measurement": "IC50", "setting": "[4]; [15]", "value": "62.4 ± 15.8", "unit": "µM"},
      {"measurement": "potency against the mutant isolates", "setting": "[5]", "value": "reduced"},
      {"measurement": "median (IQR) fold decreased IC50 values for matched isolates", "setting": "[5]; colorectal tissue compared to female genital tract tissue, NHP and human explants", "value": "1.8 (1.7–2.1) fold"},
      {"measurement": "AUC3h-15d", "setting": "[6]; [16]", "value": 6.37, "unit": "ng·days/mg"},
      {"measurement": "AUC3h-15d", "setting": "[6]; [17]", "value": 1.99, "unit": "ng·days/mg"},
      {"measurement": "AUC3h-15d", "setting": "[6]; [18]", "value": 6.62, "unit": "ng·days/mg"},
      {"measurement": "AUC3h-15d", "setting": "[6]; [19]", "value": 2.47, "unit": "ng·days/mg"},
      {"measurement": "AUC3h-15d fold increase, high versus low concentration gels", "setting": "[6]; human colorectal tissue", "value": 2.9, "unit": "fold"},
      {"measurement": "Cmax", "setting": "[6]; [16]", "value": 3670, "unit": "ng/g"},
      {"measurement": "Cmax", "setting": "[6]; [17]", "value": 1170, "unit": "ng/g"},
      {"measurement": "Cmax", "setting": "[6]; [18]", "value": 2920, "unit": "ng/g"},
      {"measurement": "Cmax", "setting": "[6]; [19]", "value": 1320, "unit": "ng/g"},
      {"measurement": "AUC3h-15d", "setting": "[7]; [16]", "value": 30.61, "unit": "ng·days/mg"},
      {"measurement": "AUC3h-15d", "setting": "[7]; [17]", "value": 4.409, "unit": "ng·days/mg"},
      {"measurement": "AUC3h-15d", "setting": "[7]; [18]", "value": 25.40, "unit": "ng·days/mg"},
      {"measurement": "AUC3h-15d", "setting": "[7]; [19]", "value": 4.05, "unit": "ng·days/mg"},
      {"measurement": "average exposure (AUC3h-15d) fold change", "setting": "[7]; human ecto-cervical compared to colorectal explants", "value": 3.7, "unit": "fold"},
      {"measurement": "AUC3h-15d fold increase, high versus low concentration gels", "setting": "[7]; human ecto-cervical explants", "value": 6.6, "unit": "fold"},
      {"measurement": "Cmax fold increase", "setting": "[7]; human ecto-cervical explants versus macaque tissue", "value": 5.6, "unit": "fold"},
      {"measurement": "Cmax", "setting": "[7]; [16]", "value": 16600, "unit": "ng/g"},
      {"measurement": "Cmax", "setting": "[7]; [17]", "value": 2380, "unit": "ng/g"},
      {"measurement": "Cmax", "setting": "[7]; [18]", "value": 13600, "unit": "ng/g"},
      {"measurement": "Cmax", "setting": "[7]; [19]", "value": 2030, "unit": "ng/g"},
      {"measurement": "IC50", "setting": "[8]; Macaca mulatta, 360 h, NHP vaginal explants, day 15", "value": "52.1 ± 27.3", "unit": "µM"},
      {"measurement": "p27 AUC3-15", "setting": "[8]; [12]", "value": "1.28 ± 0.27", "unit": "µgxd/ml"},
      {"measurement": "p27 AUC3-15", "setting": "[8]; [13]", "value": "1.53 ± 0.29", "unit": "µgxd/ml"},
      {"measurement": "p27 AUC3-15", "setting": "[9]; [12]", "value": "1.40 ± 0.30", "unit": "µgxd/ml"},
      {"measurement": "p27 AUC3-15", "setting": "[9]; [13]", "value": "1.65 ± 0.30", "unit": "µgxd/ml"},
      {"measurement": "IC50", "setting": "[9]; [14]", "value": "81.3 ± 50.8", "unit": "µM"},
      {"measurement": "IC50", "setting": "[10]; Macaca mulatta, 360 h, NHP colorectal explants, day 15", "value": "30 ± 13.2", "unit": "µM"},
      {"measurement": "p27 AUC3-15", "setting": "[10]; [12]", "value": "1.45 ± 0.24", "unit": "µgxd/ml"},
      {"measurement": "p27 AUC3-15", "setting": "[10]; [13]", "value": "4.27 ± 2.75", "unit": "µgxd/ml"},
      {"measurement": "AUC3h–15d", "setting": "[11]; Rh. macaque vaginal explants, Comb. gel, High [ ]: TFV 70 µM + MVC […], 3 h exposure", "value": 10.16, "unit": "ng·days/mg"},
      {"measurement": "AUC3h–15d", "setting": "[11]; Rh. macaque vaginal explants, Comb. gel, Low [ ]: TFV 7 µM + MVC […], 3 h exposure", "value": 5.75, "unit": "ng·days/mg"},
      {"measurement": "AUC3h–15d", "setting": "[11]; Rh. macaque vaginal explants, Single gel, High [ ]: TFV 70 µM or MVC […], 3 h exposure", "value": 10.25, "unit": "ng·days/mg"},
      {"measurement": "AUC3h–15d", "setting": "[11]; Rh. macaque vaginal explants, Single gel, Low [ ]: TFV 7 µM or MVC […], 3 h exposure", "value": 4.05, "unit": "ng·days/mg"},
      {"measurement": "AUC3h-15d fold increase, high versus low concentration gels", "setting": "[11]; macaque vaginal explants", "value": 2.1, "unit": "fold"},
      {"measurement": "Cmax", "setting": "[11]; monkey, vaginal tissue explants, Rh. macaque vaginal explants, Comb. gel, High [ ]: TFV 70 µM + MVC […], 3 h exposure, read-out: Cmax", "value": 1350, "unit": "ng/g"}
    ]}
  ]
}
